Data on two compounds can be found in patent US20170112787A1, “METHODS OF TREATMENT OF INFLAMMATION OF THE GUT” (THE UNIVERSITY OF CONNECTICUT, priority 2015, published 2017).

Assay [1] relates to CX3CR1+ Mφ in PLN and MLN. In words: Oral gavage; frequency of CX3CR1+ Mφ in PLN and MLN by flow cytometry. The format is in vivo, mouse. As for the experimental part:
(§1) Cell isolation: The siLP cells were isolated as per protocols known in the art. In brief, small intestines were removed from the mice, luminal contents were flushed with cold HBSS (Invitrogen, Carlsbad, Calif., USA) with 5% FBS, opened longitudinally after removing Peyer's patches and cut in to small pieces. The epithelial cells were removed by incubation with HBSS containing 1.3 mM EDTA (Invitrogen, Carlsbad, Calif., USA), 1mM HEPES (Invitrogen, Carlsbad, Calif., USA) and 0.77 mM DTT (Sigma, St. Louis, Mo., USA) at 37° C. shaking at 350 rpm. The intestinal pieces were then washed with PBS (Invitrogen, Carlsbad, Calif., USA) and digested in 100 units/ml collagenase IV (Sigma, St. Louis, Mo., USA) at 37° C. shaking at 550 rpm. Leukocytes were enriched using percoll (GE Healthcare, Piscataway, N.J., USA) gradient. The PLN, MLN and splenic cells were isolated by gently crushing the organs through 70 μm cell strainer (BD Falcon, Franklin, N.J., USA). Splenocytes were incubated with ACK lysing buffer (Invitrogen, N.Y., USA) to eliminate red blood cells for 3 mins at 37° C. and washed twice with PBS.
Flow cytometry: Fluorescently labeled antibodies used for surface staining included: CD11b (M1/70), CD11 c (N418), CX3CR1 (polyclonal), CD103 (2E7), CD64 (X54-5/7.1), MHCII (M5/114.15.2), B220 (RA3-6B2), CD3 (145-2C11), CD4 (RM4-5), CD25 (PC61) and CD62L (ME2-14) and those used for intracellular staining include: VR1 (polyclonal) IL10 (JESS-16E3), TNFα (MP6-XT22), IFNγ (XMG1.2), and IL17A (TC11-18H10.1). For detection of CB2, primary antibody against CB2 (polyclonal) was used followed by fluorescently labeled secondary antibody. All were purchased from Biolegend San Diego, Calif., USA except for TNFα (Becton Dickinson, San Jose, Calif., USA), CX3CR1 (R&D Minneapolis, Minn., USA), VR1 (Thermo Scientific, Rockford, Ill. USA), IL10 (eBioscience, San Diego Calif., USA) and CB2 (Thermo Scientific, Rockford, Ill. USA). Cells were acquired with a LSRII flow cytometer (Becton Dickinson, San Jose, Calif., USA) or sorted with a FACSAria™ machine (Becton Dickinson, San Jose, Calif., USA). […]
(Flow cytometry measures light scatter and fluorescence of single cells or particles in a stream.)

The subject of assay [2] is siLP CX3CR1hi Mφ and CD103+ DCs. Nature of the assay: Oral gavage; IL10, TNF-α and CX3CR1 expression in siLP CX3CR1hi Mφ and CD103+ DCs by flow cytometry. The assay is classed as in vivo, mouse. As for the experimental part:
as §1
(§2) Flow cytometry: Fluorescently labeled antibodies used for surface staining included: CD11b (M1/70), CD11 c (N418), CX3CR1 (polyclonal), CD103 (2E7), CD64 (X54-5/7.1), MHCII (M5/114.15.2), B220 (RA3-6B2), CD3 (145-2C11), CD4 (RM4-5), CD25 (PC61) and CD62L (ME2-14) and those used for intracellular staining include: VR1 (polyclonal) IL10 (JESS-16E3), TNFα (MP6-XT22), IFNγ (XMG1.2), and IL17A (TC11-18H10.1). For detection of CB2, primary antibody against CB2 (polyclonal) was used followed by fluorescently labeled secondary antibody. All were purchased from Biolegend San Diego, Calif., USA except for TNFα (Becton Dickinson, San Jose, Calif., USA), CX3CR1 (R&D Minneapolis, Minn., USA), VR1 (Thermo Scientific, Rockford, Ill. USA), IL10 (eBioscience, San Diego Calif., USA) and CB2 (Thermo Scientific, Rockford, Ill. USA). Cells were acquired with a LSRII flow cytometer (Becton Dickinson, San Jose, Calif., USA) or sorted with a FACSAria™ machine (Becton Dickinson, San Jose, Calif., USA). Flow cytometry analysis was done with the FlowJo Version 9.7.6 (Tree Star, Ashland, Oreg,).
Intracellular cytokine staining: Cells were incubated with PMA (50 ng/ml) (Sigma Co., St. Luis, Mo., USA) plus ionomycin (1 μg/ml) (Sigma Co., St. Luis, Mo., USA) in the presence of golgi plug (BD Biosciences, San Jose, USA) for 5 hours at 37° C. followed by surface staining with fluorochrome conjugated antibodies and then intracellular staining of IL10, TNFα, IFNγ, and IL17A was performed by fixation and permeabilization according to manufacturer's protocol BD Cytofix/Cytoperm™ kit. […]

The test system of assay [3] is naïve splenic CD4+ T cells. In words: In vitro co-culture of siLP MNPs sorted from treated mice with naïve splenic CD4+ T cells. The assay is classed as cell-based, mouse. As for the experimental part:
(§3) Intracellular cytokine staining: Cells were incubated with PMA (50 ng/ml) (Sigma Co., St. Luis, Mo., USA) plus ionomycin (1 μg/ml) (Sigma Co., St. Luis, Mo., USA) in the presence of golgi plug (BD Biosciences, San Jose, USA) for 5 hours at 37° C. followed by surface staining with fluorochrome conjugated antibodies and then intracellular staining of IL10, TNFα, IFNγ, and IL17A was performed by fixation and permeabilization according to manufacturer's protocol BD Cytofix/Cytoperm™ kit.
In vitro co-culture assays: For in vitro co-culture assays, siLP MNPs were sorted as described previously from C57BL/6 or CX3CR1^gfp/+ mice. MNPs (10×10^4) were cocultured for 4 days with splenic naïve CD25^− CD62L^hi CD4^±T cells sorted from untreated C57BL/6 or IL27Ra^−/− mice at 1:1 ratios in the presence of soluble αCD3 mAb (145-2C11) (0.5 μg/ml) in U-bottomed 96 well plates. The cultured cells were maintained in RPMI 1640 medium supplemented with 5% fetal bovine serum, 1 mM sodium pyruvate, 1 mM non-essential amino acids, 2 mM L-gluatamine, 50 units/ml streptomycin, and 50 μM Beta-mercaptoethanol, all purchased from Gibco/Invitrogen (Carlsbad, Calif., USA). After 4 days, the cultured cells were washed with PBS and surface stained with CD4 and intracellular staining was performed for IL10 and IFN-γ.
(§4) Oral administration of CP, AEA and PF3845: Mice were anesthetized with intraperitoneal injection of ketamine (2 mg/kg) and xylazine (0.1 mg/kg). Vehicle control (tween 80 (5%), […] in PBS) or CP (10 μg) (ENZO Life Sciences, Farmingdale, N.Y., USA) or AEA (250 μg, 400 μg or 500 μg) (Cayman Chemical Co., Ann Arbor, Mich., USA) or PF3845 (5 mg/kg) (Cayman Chemical Co., Ann Arbor, Mich., USA) were gavaged in 100 μl volume using an 18-gauge feeding needle (Popper & Sons, New Hyde Park, N.Y., USA).

Assay [4] concerns CD4+IL10+IFN-γ+ Tr1 cells. Nature of the assay: Oral gavage; frequency of CD4+IL10+IFN-γ+ Tr1 cells and IL17A+ CD4+ T cells in siLP and PLN. The format is in vivo, mouse. As for the experimental part: as §1, §2, §3, §4
We now tested if CP can elicit such regulatory T cells in vivo. NOD mice were orally gavaged twice at 9th and 10th week of age with 10 μg CP or vehicle as a control; two weeks post CP treatment, siLP and the PLN were harvested and the frequency of CD4+IL10+IFN-γ+ Tr1 cells was measured.

A further assay has as its system IL27-p28. In words: qPCR of IL27-p28 in sorted siLP MNPs after oral gavage. The format is in vivo, mouse. Conditions: two days after treatment, with respect to vehicle. As for the experimental part: as §4
qPCR: Total RNA was isolated from sorted siLP MNP using the RNeasy® Micro kit Oaten, Chatsworth, Calif., USA). cDNA was made from total RNA using iSCRIPT™ cDNA synthesis kit (Bio-Rad Laboratories, Hercules, Calif.). IL-27 gene expression was measured using IL-27 TactMan® Gene Expression Assay (Life technologies, Grand Island, N.Y., USA) and CFX96™ Real-Time PCR detection system (Bio-Rad Laboratories, Hercules, Calif., USA). Gene expression was normalized to GAPDH.
For orientation: In qPCR the cycle at which signal appears reflects the starting amount.

The test system of the next assay is siLP CX3CR1hi Mφ. In words: Oral gavage; frequency of siLP CX3CR1hi Mφ and CX3CR1lo cells by flow cytometry. The format is in vivo, mouse.
Description: Mice: C57BL/6, NOD/Lt, VR1^−/− (also known as TRPV1^−/−), IL27RA^−/− (also known as WSX-1^−/−) and CX3CR1^gfp/gfp, were obtained from the Jackson Laboratory (Bar Harbor, Me.). IL10-GFP reporter (Vert-X) mice were a kind gift from Dr. Roger S Thrall. All animals except NOD/Lt were on a C57BL/6 background. CX3CR1^gfp/gfp were crossed with C57BL/6 mice to obtain CX3CR1^gfp/+ mice. CX3CR1^gfp/gfp mice were backcrossed with VR1^−/− to obtain CX3CR1^gfp/+ VR1^−/− mice. IL27RA^−/− mice were backcrossed with C57BL/6 mice to obtain IL27RA^+/− mice. All animals were housed in the Center for Comparative Medicine at UConn Health. All experiments were conducted under the guidelines approved by the UConn Health Animal Care Committee.
as §1, §2, §4

The test system of assay [5] is Type 1 Diabetes in NOD mice. Nature of the assay: Adoptive transfer of CD4+ T cells from treated NOD donors; diabetes development by urine glucose. The assay is classed as in vivo, mouse. Conditions: CD4+ T cells from PLN and spleen of treated female NOD donors, vs vehicle elicited cells. As for the experimental part: Adoptive transfer: Female NOD mice were orally gavaged with CP 10 μg or vehicle at 9 and 10 weeks of age as described earlier. 2 weeks later CD4^+ T cells were sorted from the PLN and spleen of the treated mice. All recipient female NOD mice were sub-lethally irradiated. Four hours after irradiation the recipient mice received […] diabetogenic splenocytes. 7×10^6 sorted CD4^+ T cells were then transferred to naïve NOD female mice by retro-orbital injection at 11 weeks of age. Development of diabetes was monitored by measuring urine glucose using Diastix® reagent strips (Bayer, Elkhart, Ind., USA). Mice were considered diabetic after two consecutive readings of >1000 mg/dl of urine glucose.

Setting [6] is: NOD mice, 10 μg at 9th and 10th week, two weeks post treatment.
[7] abbreviates: CX3CR1gfp/+ mice, oral gavage, 24 hours after feeding, vs vehicle.

Consider `COc1cc(CNC(=O)CCCC/C=C/C(C)C)ccc1O` [CP, Capsaicin], for which, in assay [1] (3 days after feeding 10 μg), the “frequency of CX3CR1+ Mφ in the MLN” value is “but not in MLN”. Also, the “frequency of CX3CR1+ Mφ in the PLN” value in assay [1] (3 days after feeding 10 μg) is “significant VR1-dependent increase in the frequency”; in assay [1] (NOD mice, 3 days post oral gavage 10 μg) it was “significant increase in the frequency”. Besides, the “production of TNF-α in CX3CR1hi Mφ” value in assay [2] (24 hours after treatment, vs controls) is given as “decreased”. In addition, in assay [2] (CX3CR1gfp/+ mice, vs vehicle), the “expression of CX3CR1 on CX3CR1hi Mφ” value was “significantly increased expression of CX3CR1”. In assay [2] (IL10-GFP reporter mice, oral gavage 10 μg, 24 hrs), the “IL10 production in CD103+ DCs” value is “modest but statistically significant increase in IL10 production”. Also, the “production of IL10 in CX3CR1hi Mφ” value in assay [2] (IL10 GFP-reporter mice, 24 hours after treatment, vs controls) is reported as “significant increase in the production of IL10”. For the same compound, in assay [3] (MNPs sorted 24 hours after treatment, co-culture 1:1, four days), the “expression of IL10 in CD4+ T cells” value is “significant increase in the expression of IL10”. In assay [3] (MNPs sorted 24 hours after treatment, co-culture 1:1, four days, IL27RA+/+ T cells), the “induction of CD4+ T cells expressing both IL10 and IFN-γ (Tr1)” value is on record as “significant increase in the induction”. The “increase in frequency of CD4+ IL10+ IFN-γ+ T cells” value in assay [3] (T cells derived from IL27RA−/− mice) is “completely abrogated”. The “elicitation of Tr1 cells in PLN” value in assay [4] (CX3CR1gfp/gfp mice (no functional CX3CR1)) was “does not elicit Tr1 cells”. For the same compound, the “Tr1 cell elicitation by IL27RA genotype” value in assay [4] (IL27RA −/−, +/− and +/+ mice) was “gene dose-dependence of Tr1 cell elicitation”. Moreover, the “dependence of elicited Tr1 cells on IL27 signaling” value in assay [4] (IL27RA+/+ vs IL27RA−/− mice, PLN) is recorded as “require the presence of functional IL27-IL27R signaling”. In addition, the “frequency of Tr1 cells in PLN” value in assay [4] (setting [6]) is listed as “expansion of Tr1 cells”. For the same compound, the “frequency of Tr1 cells in siLP” value in assay [4] (setting [6]) is recorded as “expansion of Tr1 cells”. Besides, the “frequency of IL17A+ CD4+ T cells in the PLN” value in assay [4] (NOD mice, oral administration) was “significant decrease in the frequency”. In addition, the “level of IL27-p28 in the MNPs” value in the assay with IL27-p28 is “five fold increase”. Besides, the “frequency and number of CX3CR1lo cells in siLP” value in the assay with siLP CX3CR1hi Mφ (CX3CR1gfp/+ mice, oral gavage 10 μg, 24 hours, vs vehicle) is “did not affect the frequency and number”. Also, the “frequency of CX3CR1hi Mφ in siLP” value with siLP CX3CR1hi Mφ (setting [7]) is “significantly increased the frequency”; in the assay with siLP CX3CR1hi Mφ (CX3CR1gfp/gfp mice (lack functional CX3CR1), oral gavage 10 μg, 24 h) it was “no changes in the frequency”; with siLP CX3CR1hi Mφ (NOD mice, oral administration) it was “increases the frequency”. Besides, the “protection from T1D by transferred CD4+ T cells” value in assay [5] is “significantly higher protection from T1D”.
Take `O=C(Nc1cccnc1)N1CCC(Cc2cccc(Oc3ccc(C(F)(F)F)cn3)c2)CC1` [PF3845]: in the assay on siLP CX3CR1hi Mφ (setting [7]), the “frequency of CX3CR1hi Mφ in siLP” value is “increase in the frequency”.
